US20240115558A1
Entries after “also recorded” stand apart in the source; their conditions may differ. Structures can show the parent of a compound that is named as a salt.

Experiments:
[1] = tested on: NPC1 protein in GM18420 (P1007A/IVS23+4delA); assay: EndoH-resistant NPC1 by western blot, GM18420 fibroblasts; format: cell-based, human; conditions: 400 μM, 5 days
Protocol: (§1) PNGase cleaves all glycans from the NPC1 protein regardless of maturation status and is included as a control. EndoH sensitive, immature NPC1 is seen in untreated GM18453 extracts. (B) Quantification of the EndoH resistant NPC1, shown as arimoclomol treated relative to untreated cells. Cells were treated for 5 days with 400 μM arimoclomol. Average of three independent experiments, mean±SD. Pairwise t-test (p: *<0.05). The data are further described in Example 2. […]
(§2) Fibroblasts were seeded one day prior to treatment (day −1) with either 400 μM arimoclomol or PBS (control). […] Protein concentration for each sample was quantified with a BCA assay kit. […]
(§3) Proteins were resolved by SDS-PAGE and detected with Western blot (NPC1&tubulin).
(§4) For the quantification of mature and immature forms of NPC1 as shown in FIGS. 5A-B, membranes were imaged and protein bands for the immature (EndoH sensitive) and mature (EndoH resistant) forms of NPC1 (180-250 kDa) and tubulin (50 kDa) were quantified using ImageJ software. […] The fold change of EndoH-resistant NPC1 protein after arimoclomol treatment relative to PBS-treated (untreated) control within each cell line was quantified. […]

[2] = tested on: patients with Niemann-Pick disease, type C (NPC); assay: Phase 2/3 NPC trial: safety evaluation
Protocol: Study Procedures: the screening visit (visit 1) included a baseline assessment, randomization assignment, and pharmacokinetic (PK) assessment. The first dose of arimoclomol or placebo was given within 1 week of randomization. Safety assessments were performed at visit 2 (7-14 days after start of treatment) and then every 3 months during the blinded period (visits 3-6).

[3] = tested on: NPC1 protein in GM18453 (I1061T/I1061T); assay: EndoH-resistant NPC1 by western blot, GM18453 fibroblasts; format: cell-based, human; conditions: 400 μM, 5 days
Protocol: as §1, §2, §3, §4

[4] = tested on: HSPA1A, the gene encoding HSP70; assay: HSPA1A expression in NPC patient fibroblasts treated with arimoclomol; format: cell-based, human; conditions: NPC patient fibroblasts I1061T/I1061T; various concentrations; days 2 and 5
Protocol: The expression level of HSP1A1 is quantified on days 2 and day 5. The data are further described in Example 2.
(§5) Fibroblasts were seeded one day prior to treatment (day −1) with either 400 μM arimoclomol or PBS (control). Cells were treated continuously with arimoclomol from day 0 to day 5, with a media change on day 3, and harvested on day 5. The cells thus experienced 5 days of continued arimoclomol treatment. Cells were subsequently lysed with RIPA buffer containing protease and phosphatase inhibitors. Protein concentration for each sample was quantified with a BCA assay kit.

[5] = evidenced by presence in cerebrospinal fluid of treated ALS patients; cited from earlier work
[6] = tested on: NPC1 protein; assay: Total NPC1 protein by western blot in NPC patient fibroblast cell lines; format: cell-based, human; conditions: patient fibroblasts with the most common NPC1 mutations; 50-400 μM, five days
Protocol: The data are further described in Example 2.
as §5

[7] = tested on: patients with Niemann-Pick disease, type C (NPC); assay: 12-month randomized, double-blind, placebo-controlled phase 2/3 trial of arimoclomol in NPC: clinical efficacy endpoints; format: in vivo, human; parameters: key to Change from baseline in 5-domain NPCCSS score, treatment difference / Change in 5-domain NPCCSS score from baseline at 12 months, mean change / Change in 5-domain NPCCSS score, mean change / Change from baseline in 5-domain NPCCSS score, LSMean: 5-domain NPCCSS points (total 0–25, higher = more severe impairment); conditions: for Change from baseline in 5-domain NPCCSS score, LSMean / Change from baseline in 5-domain NPCCSS score, treatment difference: patients with ER genotype; for Change in 5-domain NPCCSS score, mean change: 12 months
Protocol: Patients enrolled in the trial were stratified by use of miglustat at baseline. Patients in both strata were randomized 2:1 to receive arimoclomol or placebo.
Routine clinical care was maintained throughout the trial (including administration of miglustat). Each participant was randomized to receive arimoclomol or placebo three times daily. Arimoclomol (calculated as free base) was administered orally or by feeding tube at 93-372 mg/day based on the patient's body weight up to the estimated equivalence of 372 mg/day for adults (body weight>55 kg) or of 124 mg three times a day.
During the 12-month treatment phase, efficacy assessments for the primary endpoint, the 5-domain NPCCSS score, and for the non-disease specific Clinical Global Impression-Improvement scale (CGI-I) scores were performed at baseline and after 3, 6, 9, and 12 months of treatment; all other efficacy and biomarker assessments were performed at baseline and after 6 and 12 months of treatment.
Primary endpoint: The primary endpoint was change from baseline in NPC severity at 12 months as assessed by the 5-domain NPCCSS score, an abbreviated assessment tool originating from the 17 domain NPCCSS score developed by Yanjanin et al., as described herein. The fully validated 5-domain NPCCSS score comprises the domains determined to be most clinically relevant to patients, caregivers, and clinicians: ambulation, cognition, fine motor skills, speech, and swallowing. The total aggregated 5-domain NPCCSS score ranges from 0 to 25, with a higher score indicating more severe clinical impairment.
Subgroup analyses of primary endpoint: NPC is a heterogeneous disease, and patients aged 2 to 18 years present with a large spectrum of disease presentations. The group of children<4 years old includes patients with mild manifestations and patients with aggressive, early fatal disease. As this group is particularly heterogeneous, a subgroup of patients ≥4 years of age was predefined with the population of study participants.
In the EU, miglustat is indicated for the treatment of progressive neurological manifestations in patients with NPC. However, not all patients are candidates for miglustat treatment, and it is recommended that the benefit of treatment should be evaluated on a regular basis (e.g., every six months). An analysis of the subpopulation of patients receiving miglustat was prespecified to elucidate the effect of arimoclomol in patients on background miglustat treatment. Overall, the subgroups of patients ≥4 years of age, and patients on miglustat treatment, were expected to be more homogeneous with respect to baseline demographics and disease characteristics and therefore more suitable for comparison.
In the first post hoc analysis, subjects with double functional null mutations in NPC1 (NPC1 genotype of Functional Null/Functional Null) were excluded.
In the second post hoc analysis, only subjects with annual severity increment score (ASIS) 0.5-2.0 were included.
In an additional post hoc analysis, only subjects with at least one ER type mutation were included.

[O-][n+]1cccc(/C(Cl)=N/OC[C@H](O)CN2CCCCC2)c1 [Arimoclomol, (+)-(R)-N-[2-hydroxy-3-(1-piperidinyl)-propoxy]-pyridine-1-oxide-3-carboximidoyl chloride citrate]
Amount of EndoH-resistant (correctly processed) NPC1 relative to PBS-treated cells [1]: increased | Tolerability ([2]; 12-month trial): well tolerated | Patients with increase in serum creatinine level over 1.5 times their baseline values ([2]; arimoclomol group): Six | Patients with serum creatinine levels over twice baseline values ([2]; arimoclomol group): two | Patients with TEAEs ([2]; arimoclomol group, 30/34): 88.2% | Changes in vital signs, electrocardiograms, or other laboratory values during the trial ([2]; in vivo): no significant changes | TEAEs occurring more frequently with arimoclomol versus placebo ([2]; in vivo): Upper respiratory tract infection and decreased weight | Patients with TEAEs that led to trial drug discontinuation ([2]; three patients, four TEAEs (urticaria, angioedema, increased blood creatinine)): 8.8% | Amount of EndoH-resistant (correctly processed) NPC1 relative to PBS-treated cells [3]: increased | Amount of EndoH-resistant (correctly processed) NPC1 relative to PBS-treated cells ([3]; listed as arimoclomol): increased; also recorded: clear increase of correctly matured NPC1 protein | Expression of HSPA1A relative to PBS-treated control [4]: time- and dose-dependent increase | Blood-brain barrier passage [5]: crosses the blood-brain barrier | Amount of total NPC1 protein relative to PBS-treated control [6]: increased | SARA score change from baseline to 12 months, LS mean ([7]; human, in vivo): 1.06 | SARA score change from baseline to 12 months, arimoclomol vs placebo: difference ([7]; human, in vivo): 0.28 | Change in 5-domain NPCCSS score from baseline at 12 months, mean change ([7]; overall population, arimoclomol 93-372 mg/day (free base) t.i.d.): 0.80 | Change from baseline in 5-domain NPCCSS score, LSMean ([7]; month 3): −0.29 | Change from baseline in 5-domain NPCCSS score, treatment difference ([7]; month 3): −1.60 | Change from baseline in 5-domain NPCCSS score, LSMean ([7]; month 6): 0.61 | Change from baseline in 5-domain NPCCSS score, treatment difference ([7]; month 6): −2.19 | Change from baseline in 5-domain NPCCSS score, LSMean ([7]; month 9): 0.86 | Change from baseline in 5-domain NPCCSS score, treatment difference ([7]; month 9): −3.44 | Change from baseline in 5-domain NPCCSS score, LSMean ([7]; month 12): 0.52 | Change from baseline in 5-domain NPCCSS score, treatment difference ([7]; month 12): −4.79 | Change in 5-domain NPCCSS score, mean change ([7]; post hoc: ASIS within 0.5 and 2): 0.19 | Change in 5-domain NPCCSS score, mean change ([7]; post hoc: excluding individuals with double functional null mutations): 0.47
